# Molecular target: T1, human FXRalpha ligand binding domain (LBD) (Homo sapiens, UniProt Q96RI1)
# T1 construct: made in house; host or cells: E. coli BL21(DE3), vector pDEST15
# T1 sequence (Q96RI1 187-472 isoform Q96RI1-2): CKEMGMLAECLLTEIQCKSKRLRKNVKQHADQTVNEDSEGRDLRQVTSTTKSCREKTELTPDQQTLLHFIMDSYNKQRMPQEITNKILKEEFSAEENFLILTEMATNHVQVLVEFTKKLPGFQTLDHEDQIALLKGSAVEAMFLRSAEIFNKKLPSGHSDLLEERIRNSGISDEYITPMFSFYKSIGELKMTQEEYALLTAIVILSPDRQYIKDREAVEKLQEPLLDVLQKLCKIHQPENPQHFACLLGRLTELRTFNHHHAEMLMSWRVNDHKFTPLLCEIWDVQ
# Test: FRET activity assay (ligand mediated cofactor peptide interaction, LANCE)
# Type: biochemical
# Conditions: GST-FXR-LBD / biotinylated SRC-1 peptide (676-700)
# Description: Determination of a ligand mediated cofactor peptide interaction to quantify ligand binding to the nuclear receptor Farnesoid X Receptor (FXR) was performed as follows:
# Preparation of human farnesoid X receptor (FXR) alpha ligand binding domain: The human FXRalpha ligand binding domain (LBD) was expressed in E. coli strain BL21(DE3) as an N-terminally glutathione-[…] (GST) tagged fusion protein. The DNA encoding the FXR ligand binding domain was cloned into vector pDEST15 (Invitrogen). Expression was under control of an IPTG inducible T7 promoter. The amino acid boundaries of the ligand binding domain were amino acids 187-472 of Database entry NM_005123 (RefSeq). Expression and purification of the FXR-LBD: An overnight preculture of a transformed E. coli strain was diluted 1:20 in LB-Ampicillin medium and grown at 30° C. to an optical density of OD600=0.4-0.6. Gene expression was then induced by addition of 0.5 mM IPTG. Cells were incubated an additional 6 h at 30° C., 180 rpm. Cells were collected by centrifugation (7000×g, 7 min, room temperature). Per liter of original cell culture, cells were resuspended in 10 ml lysis buffer (50 mM Glucose, 50 mM Tris pH 7.9, 1 mM EDTA and 4 mg/ml lysozyme) and left on ice for 30 min. Cells were then subjected to sonication and cell debris removed via centrifugation (22000×g, 30 min, 4° C.). Per 10 ml of supernatant 0.5 ml prewashed Glutathione 4B sepharose slurry (Qiagen) was added and the suspension kept slowly rotating for 1 h at 4° C. Glutathione 4B sepharose beads were pelleted by centrifugation (2000 g, 15 sec, 4° C.) and washed twice in wash buffer (25 mM Tris, 50 mM KCl, 4 mM MgCl2 and 1M NaCl). The pellet was resuspended in 3 ml elution buffer per liter of original culture (elution buffer: 20 mM Tris, 60 mM KCl, 5 mM MgCl2 and 80 mM glutathione added immediately prior to use as powder). The suspension was left rotating for 15 min at 4° C., the beads pelleted and eluted again with half the volume of elution buffer than the first time. The eluates were pooled and dialysed overnight in 20 mM Hepes buffer (pH 7.5) containing 60 mM KCl, 5 mM MgCl2 as well as 1 mM dithiothreitol and 10% (v/v) glycerol. The protein was analysed by SDS-Page.
# The method measures the ability of putative ligands to modulate the interaction between the purified bacterial expressed FXR ligand binding domain (LBD) and a synthetic biotinylated peptide based on residues 676-700 of SRC-1 (LCD2, 676-700). The sequence of the peptide used was B-[…]-COOH where the N-terminus was biotinylated (B). The ligand binding domain (LBD) of FXR was expressed as fusion protein with GST in BL-21 cells using the vector pDEST15. Cells were lysed by sonication, and the fusion proteins purified over glutathione sepharose (Pharmacia) according to the manufacturers instructions. For screening of compounds for their influence on the FXR-peptide interaction, the Perkin Elmer LANCE technology was applied. This method relies on the binding dependent energy transfer from a donor to an acceptor fluorophor attached to the binding partner of interest. For ease of handling and reduction of background from compound fluorescence LANCE technology makes use of generic fluorophore labels and time resolved detection Assays were done in a final volume of 2 5 μl in a 384 well plate, in a Tris-based buffer (20 mM Tris-HCl pH 7,5; 60 mM KCl, 5 mM MgCl2; 35 ng/μl BSA), containing 20-60 ng/well recombinantly expressed FXR-LBD fused to GST, 200-600 nM N-terminally biotinylated peptide, representing SRC1 aminoacids 676-700, 200 ng/well Streptavidin-xIAPC conjugate(Prozyme) and 6-10 ng/well Eu W1024 antiGST (Perkin Elmer). DMSO content of the samples was kept at 1%. After generation of the assay mix and diluting the potentially FXR modulating ligands, the assay was equilibrated for one hour in the dark at room temperature in FIA-plates black 384 well (Greiner). […]
row,IC50,Compound
1,≤ 1000 nM,"Cc1nc(OCc2c(-c3c(Cl)cccc3Cl)noc2C(C)C)ccc1NC(=O)c1ccc(C(=O)O)cc1 [Example 1, N-{6[3-(2,6-dichloro-phenyl)-5-isopropyl-isoxazol-4-ylmethoxy]-2-methyl-pyridin-3-yl}-terephthalamic acid]"
2,≤ 1000 nM,"Cc1nc(OCc2c(-c3c(Cl)cccc3Cl)noc2C(C)C)ccc1N(C)C(=O)c1ccc(C(=O)O)cc1 [Example 2, 4-((6-((3-(2,6-Dichlorophenyl)-5-isopropylisoxazol-4-yl)methoxy)-2-methylpyridin-3-yl)(methyl)carbamoyl)benzoic acid]"
3,≤ 1000 nM,"Cc1nc(OCc2c(-c3c(Cl)cccc3Cl)noc2C(C)C)ccc1NS(=O)(=O)c1ccc(C(=O)O)cc1 [Example 3, 4-{6-[3-(2,6-Dichloro-phenyl)-5-isopropyl-isoxazol-4-ylmethoxy]-2-methyl-pyridin-3-ylsulfamoyl}-benzoic acid]"
4,1000 to 10000 nM,"COC(=O)c1ccc(C(=O)Nc2ccc(OCc3c(-c4c(Cl)cccc4Cl)noc3C(C)C)nc2C(F)(F)F)cc1 [Example 5, N-{6-[3-(2,6-dichloro-phenyl)-5-isopropyl-isoxazol-4-ylmethoxy]-2-trifluoromethyl-pyridin-3-yl}-terephthalamic acid methyl ester]"
5,1000 to 10000 nM,"CC(C)c1onc(-c2c(Cl)cccc2Cl)c1COc1ccc(NS(=O)(=O)c2ccc(C(=O)O)cc2)c(C(F)(F)F)n1 [Example 8, 4-{6-[3-(2,6-dichloro-phenyl)-5-isopropyl-isoxazol-4-ylmethoxy]-2-trifluoromethyl-pyridin-3-ylsulfamoyl}-benzoic acid]"
6,≤ 1000 nM,"CC(C)c1onc(-c2c(Cl)cccc2Cl)c1COc1ccc(N(C)S(=O)(=O)c2ccc(C(=O)O)cc2)c(C(F)(F)F)n1 [Example 9, 4({6-[3-(2,6-Dichloro-phenyl)-5-isopropyl-isoxazol-4-ylmethoxy]-2-trifluoromethyl-pyridin-3-yl}-methyl-sulfamoyl)-benzoic acid]"
7,≤ 1000 nM,"COc1nc(OCc2c(-c3c(Cl)cccc3Cl)noc2C(C)C)ccc1NC(=O)c1ccc(C(=O)O)cc1 [Example 10, N-{6-[3-(2,6-dichloro-phenyl)-5-isopropyl-isoxazol-4-ylmethoxy]-2-methoxy-pyridin-3-yl}-terephthalamic acid]"
8,1000 to 10000 nM,"COc1nc(OCc2c(-c3c(Cl)cccc3Cl)noc2C(C)C)ccc1N(C)C(=O)c1ccc(C(=O)O)cc1 [Example 11, N-{6-[3-(2,6-dichloro-phenyl)-5-isopropyl-isoxazol-4-ylmethoxy]-2-methoxy-pyridin-3-yl}-N-methyl-terephthalamic acid]"
9,≤ 1000 nM,"COc1nc(OCc2c(-c3c(Cl)cccc3Cl)noc2C(C)C)ccc1NS(=O)(=O)c1ccc(C(=O)O)cc1 [Example 12, 4-{6[3-(2,6-dichloro-phenyl)-5-isopropyl-isoxazol-4-ylmethoxy]-2-methoxy-pyridin-3-ylsulfamoyl}-benzoic acid]"
10,≤ 1000 nM,"COc1nc(OCc2c(-c3c(Cl)cccc3Cl)noc2C(C)C)ccc1N(C)S(=O)(=O)c1ccc(C(=O)O)cc1 [Example 13, 4-({6-[3-(2,6-dichloro-phenyl)-5-isopropyl-isoxazol-4-ylmethoxy]-2-methoxy-pyridin-3-yl}-methyl-sulfamoyl)-benzoic acid]"
11,≤ 1000 nM,Cc1cc(OCc2c(-c3c(Cl)cccc3Cl)noc2C(C)C)ncc1NC(=O)c1ccc(C(=O)O)cc1 [Example 14]
12,1000 to 10000 nM,"Cc1onc(-c2c(Cl)cccc2Cl)c1COc1ccc(NC(=O)c2ccc(C(=O)O)cc2)cn1 [Example 16, 4-(6-((3-(2,6-dichlorophenyl)-5-methylisoxazol-4-yl)methoxy)pyridin-3-ylcarbamoyl)benzoic acid]"
13,1000 to 10000 nM,"Cc1onc(-c2c(Cl)cccc2Cl)c1COc1ccc(NS(=O)(=O)c2cccc(C(=O)O)c2)cn1 [Example 17, 3-(N-(6-((3-(2,6-dichlorophenyl)-5-methylisoxazol-4-yl)methoxy)pyridin-3-yl)sulfamoyl)benzoic acid]"
14,1000 to 10000 nM,"Cc1onc(-c2c(Cl)cccc2Cl)c1COc1ccc(NS(=O)(=O)c2ccc(C(=O)O)cc2)cn1 [Example 18, 4-(N-(6-((3-(2,6-dichlorophenyl)-5-methylisoxazol-4-yl)methoxy)pyridin-3-yl)sulfamoyl)benzoic acid]"
15,1000 to 10000 nM,"COC(=O)c1cccc(C(=O)Nc2ccc(OCc3c(-c4c(Cl)cccc4Cl)noc3C(C)C)nc2C(F)(F)F)c1 [Example 20, N-(6-[3-(2,6-Dichloro-phenyl)-5-isopropyl-isoxazol-4-ylmethoxy]-2-trifluoromethyl-pyridin-3-yl)-isophthalamic acid methyl ester]"
16,≤ 1000 nM,"CC(C)c1onc(-c2c(Cl)cccc2Cl)c1COc1ccc(N(C)C(=O)c2cccc(C(=O)O)c2)c(C(F)(F)F)n1 [Example 22, 3-((6-((3-(2,6-Dichlorophenyl)-5-isopropylisoxazol-4-yl)methoxy)-2-(trifluoromethyl)pyridin-3-yl)(methyl)carbamoyl)benzoic acid]"
17,≤ 1000 nM,"CC(C)c1onc(-c2c(Cl)cccc2Cl)c1COc1cnc(N(C)Cc2ccc(C(=O)O)cc2)c(Cl)c1 [Example 31, 4-(((3-Chloro-5-((3-(2,6-dichlorophenyl)-5-isopropylisoxazol-4-yl)methoxy)pyridin-2-yl)(methyl)amino)methyl)benzoic acid]"
18,≤ 1000 nM,"CC(C)c1onc(-c2c(Cl)cccc2Cl)c1COc1ccc(N(C)Cc2ccc(C(=O)OCCO)cc2)c(C(F)(F)F)n1 [Example 33, 2-Hydroxyethyl 4-(((6-((3-(2,6-dichlorophenyl)-5-isopropylisoxazol-4-yl)methoxy)-2-(trifluoromethyl)pyridin-3-yl)(methyl)amino)methyl)benzoate]"
19,≤ 1000 nM,"CC(C)c1onc(-c2c(Cl)cccc2Cl)c1COc1ccc(N(C)Cc2ccc(C(=O)OCC(O)CO)cc2)c(C(F)(F)F)n1 (stereo not drawn) [Example 34, 2,3-Dihydroxypropyl 4-(((6-((3-(2,6-dichlorophenyl)-5-isopropylisoxazol-4-yl)methoxy)-2-(trifluoromethyl)pyridin-3-yl)(methyl)amino)methyl)benzoate]"
20,≤ 1000 nM,"CC(C)c1onc(-c2c(Cl)cccc2Cl)c1COc1ccc(N(C)Cc2ccc(C(=O)NCC(O)CO)cc2)c(C(F)(F)F)n1 (stereo not drawn) [Example 35, 4-(((6-((3-(2,6-Dichlorophenyl)-5-isopropylisoxazol-4-yl)methoxy)-2-(trifluoromethyl)pyridin-3-yl)(methyl)amino)methyl)-N-(2,3-dihydroxypropyl)benzamide]"
21,≤ 1000 nM,"CC(C)c1onc(-c2c(Cl)cccc2Cl)c1COc1ccc(N(C)Cc2ccc(C(=O)NCCO)cc2)c(C(F)(F)F)n1 [Example 36, 4-(((6-((3-(2,6-Dichlorophenyl)-5-isopropylisoxazol-4-yl)methoxy)-2-(trifluoromethyl)pyridin-3-yl)(methyl)amino)methyl)-N-(2-hydroxyethyl)benzamide]"
